# Assay results published in patent US20210186947A1, “TOMM6-INTERACTING EXTRACTS AND COMPOUNDS FOR USE IN THE TREATMENT AND PROPHYLAXIS OF NERVOUS SYSTEM DISEASES, ATHEROSCLEROSIS, HEPATITIS B INFECTION AND HUMAN PAPILLOMA VIRUS (HPV) INFECTION” (ETH ZURICH, priority 2018, published 2021).
# Assays:
# [1] = system: atherosclerotic lesions in the aorta; assay: Atherosclerotic lesion area in oil red O-stained aortas of ApoE-/- mice; format: in vivo; conditions: 9-month-old ApoE-/- mice, 10 mg/kg/d in drinking water for 8 months
# Method: ApoE−/− mice (Taconic Biosciences, Rensselaer, N.Y., USA) with deficiency of apolipoprotein E (ApoE−/−) due to disruption of the endogenous ApoE gene were used as a genetic model of atherosclerosis (Piedrahita et al., Proc. Natl. Acad. Sci. U.S.A., 89, 4471-4475, 1992). Atherosclerotic lesion area was determined by quantitative image analysis with oil red O-stained aortas. Total plasma cholesterol was determined by a commercial kit (Sigma). Mice were kept on a 12 h dark and 12 h light cycle, had free access to food and water, and were fed a standard rodent chow (AIN-95-based diet without vitamin E supplementation and with 7% fat and 0.15% cholesterol). For the study, we used ApoE−/− mice on a B6 (C57BL/6J) background and non-transgenic B6 control mice. Alizarin treatment (10 mg/kg/day in drinking water) was initiated at an age of 4 weeks and continued for eight months until the end of the observation period. […]
# Alzheimer's Disease (AD) is the most frequent form of dementia in the elderly. […] Atherosclerotic lesion area was assessed with oil red O-stained aortas isolated from 9-month-old ApoE−/− mice (FIG. 17A). […] The aortic expression levels of neuronal marker genes of alizarin-treated ApoE−/− mice were determined compared to untreated ApoE−/− mice and untreated B6 mice without atherosclerosis (FIG. 17D,E).
# HPV-induced warts = assay: Phase-1 placebo-controlled study of topical Compound-1 on flat warts; format: in vivo, human; conditions: once daily topical Compound-1-containing hydrogel (0.2%) for 3 weeks
# Method: The study analyzed the treatment effect of topical administration of Compound-1 on warts. The study was performed according to the study protocol. Study design: The study was a phase-1, placebo-controlled study of Compound-1. The primary end-point was safety and tolerability. Secondary objectives were treatment effects on wart lesion size. The study included a cohort of 6 voluntary research participants (6 males; age 36-72 years; all Caucasians) with diagnosed flat warts. A total number of 94 lesions were treated with Compound-1. Vehicle-treated warts (n=88) of each participant served as placebo group. Study participants received once daily topical applications of a Compound-1-containing hydrogel (0.2%) or vehicle for 3 weeks. The study participants were under the medical supervision of Dr. Raafat Mahmood Fawzy (Clinical Director, Rabaa El Adaweya Medical Central Hospital, Cairo, Egypt). Clinical laboratory parameters of all research participants were within the normal range before, during the study and after completion of the study (observation period 4 weeks). […] The study protocol was conducted in accordance with the Declaration of Helsinki. All research participants provided written informed consent before participation. Research participants had the possibility to withdraw at any time from the study. But all participants wanted to complete the study.
# A total number of 94 lesions were treated with Compound-1. Vehicle-treated warts (n=88) served as placebo. […] The treatment effect of Compound-1 against HPV infection is directly related to its activity as TOMM6 inducer/activator, which is a sufficient cause to inhibit (amyloidogenic) protein aggregation in cells and in vivo. In this context, HPV infection is another disease with causal involvement of an aggregation-prone amyloidogenic protein. Without wishing to be bound by theory, it is believed that Infections with human papillomaviruses (HPV) rely on the highly amyloidogenic protein E1AE4, also known as the HPV E4 protein (McIntosh et al., 82, 8196-8203 (2008)). The HPV E4 protein, which uses the amyloid-fold as does amyloid-beta, is the most abundantly expressed viral transcript/protein in HPV-infected epithelia, and mediates HPV-mediated disruption of cellular integrity, HPV release from infected epithelial cells and virus transmission (McIntosh et al., 82, 8196-8203 (2008); Doorbar, Virology 445, 80-98 (2013)). In HPV-induced warts, the aggregation-prone HPV E4 protein can constitute between 20% and 30% of the total wart protein (Doorbar et al., EMBO J. 5, 355-362 (1986)). The expression of E1AE4 relies on self-aggregation of the HPV E4 protein (Bryan et al., Virology 241, 49-60 (1998)).
# Salmonella strain TA1537 = conditions: cited from earlier work
# Tomm6 = biological target: T1, Tomm6 (Mus musculus, UniProt Q9CQN3); assay: Immunoblot detection of hippocampal Tomm6 protein in treated Tg2576 mice; format: in vivo; conditions: aged Tg2576 mice treated for 6 months
# T1 construct: hippocampi were isolated from 5-10 aged Tg2576 mice, pulverized under liquid nitrogen and solubilized; from tissue; host or cells: hippocampus of Tg2576 mice
# T1 sequence (Q9CQN3 1-74): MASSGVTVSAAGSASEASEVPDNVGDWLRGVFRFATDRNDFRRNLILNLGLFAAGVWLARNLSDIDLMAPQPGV
structure (smiles),measurement,setting,value
"O=C1c2ccccc2C(=O)c2c1ccc(O)c2O [Compound-1, 1,2-dihydroxyanthraquinone]","atherosclerotic lesion area, lower compared to untreated ApoE-/- mice",[1],3.6 fold
same,response of treated warts,HPV-induced warts,showed a response
same,adverse effects (safety and tolerability),HPV-induced warts; 6 participants,no adverse effects
same,lesions with complete response (100% decrease of the lesion area),HPV-induced warts; 94 lesions,more than 86%
same,lesions with partial response (>50%-<100% decrease of lesion area),HPV-induced warts; 94 lesions,13.8%
same,mutagenicity in the Ames test,Salmonella strain TA1537,could be mutagenic
same,hippocampal protein content of Tomm6,Tomm6,substantially increased
